Reference: PubChem BioAssay AID248 (DTP/NCI, 2004)
Toxic doses and inconclusive results are not listed. No stated cut-off is given here; in the data, active means T/C of 150% or more; inactive means T/C below 125%.

System: L1210 leukemia ip in BDF1 mice, survival T/C
Assay: NCI In Vivo Anticancer Drug Screen. Data for tumor model L1210 Leukemia (intraperitoneal) in B6D2F1 (BDF1) mice
Settings: endpoint: mean survival time, higher = longer survival
How it was run: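 Survival endpoint. Drug-treated group vs vehicle group, expressed as T divided by C. Tumor passaged by transplantation.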

[1] = dose: 50.0 mg/kg/injection, schedule: Q01DX009 (ip), vehicle: saline with Tween-80
[2] = dose: 100.0 mg/kg/injection, schedule: Q01DX009 (ip), vehicle: saline with Tween-80
[3] = dose: 200.0 mg/kg/injection, schedule: Q01DX009 (ip), vehicle: saline with Tween-80
[4] = dose: 50.0 mg/kg/injection, schedule: Q01DX009 (ip), vehicle: saline
[5] = dose: 100.0 mg/kg/injection, schedule: Q01DX009 (ip), vehicle: saline
[6] = dose: 100.0 mg/kg/injection, schedule: Q04DX003 (ip), vehicle: saline
[7] = dose: 100.0 mg/kg/injection, schedule: Q01DX001 (ip), vehicle: saline
[8] = dose: 200.0 mg/kg/injection, schedule: Q01DX001 (ip), vehicle: saline
[9] = dose: 400.0 mg/kg/injection, schedule: Q01DX001 (ip), vehicle: saline
[10] = dose: 50.0 mg/kg/injection, schedule: Q01DX001 (ip), vehicle: carboxymethylcellulose (CMC)
[11] = dose: 100.0 mg/kg/injection, schedule: Q01DX001 (ip), vehicle: carboxymethylcellulose (CMC)
[12] = dose: 200.0 mg/kg/injection, schedule: Q01DX001 (ip), vehicle: carboxymethylcellulose (CMC)
[13] = dose: 400.0 mg/kg/injection, schedule: Q01DX001 (ip), vehicle: carboxymethylcellulose (CMC)
[14] = dose: 200.0 mg/kg/injection, schedule: Q04DX003 (ip), vehicle: saline
[15] = dose: 100.0 mg/kg/injection, schedule: Q04DX003 (ip), vehicle: Klucel (hydroxypropylcellulose) (HPC)
[16] = dose: 200.0 mg/kg/injection, schedule: Q04DX003 (ip), vehicle: Klucel (hydroxypropylcellulose) (HPC)
[17] = dose: 75.0 mg/kg/injection, schedule: Q01DX001 (ip), vehicle: saline
[18] = dose: 150.0 mg/kg/injection, schedule: Q01DX001 (ip), vehicle: saline
[19] = dose: 400.0 mg/kg/injection, schedule: Q04DX003 (ip), vehicle: Klucel (hydroxypropylcellulose) (HPC)
[20] = dose: 200.0 mg/kg/injection, schedule: Q01DX009 (ip), vehicle: saline
[21] = dose: 400.0 mg/kg/injection, schedule: Q04DX003 (ip), vehicle: saline
[22] = dose: 75.0 mg/kg/injection, schedule: Q01DX001 (ip), vehicle: carboxymethylcellulose (CMC)

Measured: T/C

CCOCCOCCOC(C)Oc1cccc(OC)c1 (configuration not stated)
inactive: dose: 100.0 mg/kg/injection, schedule: Q04DX002 (ip), vehicle: saline 107 % of control | dose: 200.0 mg/kg/injection, schedule: Q04DX002 (ip), vehicle: saline 101 % of control | dose: 400.0 mg/kg/injection, schedule: Q04DX002 (ip), vehicle: saline 96 % of control

O=C(N/N=C/c1cccc(F)c1)c1ccccc1Cl
inactive: [1] 91 % of control | [2] 102 % of control | [3] 87 % of control

O=C1OC(c2ccccc2)=N/C1=C\c1cccnc1
inactive: dose: 50.0 mg/kg/injection, schedule: Q04DX002 (ip), vehicle: Klucel (hydroxypropylcellulose) (HPC) 90 % of control | dose: 100.0 mg/kg/injection, schedule: Q04DX002 (ip), vehicle: Klucel (hydroxypropylcellulose) (HPC) 96 % of control | dose: 200.0 mg/kg/injection, schedule: Q04DX002 (ip), vehicle: Klucel (hydroxypropylcellulose) (HPC) 86 % of control | dose: 400.0 mg/kg/injection, schedule: Q04DX002 (ip), vehicle: Klucel (hydroxypropylcellulose) (HPC) 86 % of control

S=C(n1ccnc1)n1ccnc1
inactive: dose: 25.0 mg/kg/injection, schedule: Q01DX009 (ip), vehicle: saline 100 % of control | dose: 25.0 mg/kg/injection, schedule: Q04DX003 (ip), vehicle: saline 106 % of control | [4] 95 % of control | dose: 50.0 mg/kg/injection, schedule: Q04DX003 (ip), vehicle: saline 105 % of control | [5] 103 % of control | [6] 103 % of control | dose: 150.0 mg/kg/injection, schedule: Q01DX009 (ip), vehicle: saline 94 % of control | dose: 225.0 mg/kg/injection, schedule: Q01DX009 (ip), vehicle: saline 92 % of control

CCOC(=O)c1cc([N+](=O)[O-])cnc1C
inactive: dose: 100.0 mg/kg/injection, schedule: Q01DX001 (ip), vehicle: saline sonified 96 % of control | dose: 200.0 mg/kg/injection, schedule: Q01DX001 (ip), vehicle: saline sonified 96 % of control | dose: 400.0 mg/kg/injection, schedule: Q01DX001 (ip), vehicle: saline sonified 97 % of control

C[n+]1ccccc1
inactive: [7] 94 % of control | [8] 93 % of control | [9] 104 % of control

CCOC(=O)C(C)(CCOCc1ccccc1)NC(C)=O (configuration not stated)
inactive: [10] 94 % of control | [11] 96 % of control | [12] 100 % of control | [13] 91 % of control

CC12CCC(=O)C=C1CCCC2=O (configuration not stated)
inactive: [6] 95 % of control | [14] 101 % of control

Cc1cc(S(=O)(=O)F)ccc1NC(=O)NCc1ccc([N+](=O)[O-])cc1Cl
inactive: [15] 112 % of control | [16] 101 % of control

Cn1ncc2c1NC(c1ccc(F)cc1)SCC2=O (configuration not stated)
inactive: dose: 400.0 mg/kg/injection, schedule: Q01DX009 (ip), vehicle: gum acacia 108 % of control

COc1ccc(C(=O)C(C)C(C)=O)c(OCc2ccccc2)c1OC (configuration not stated)
inactive: [11] 96 % of control | [12] 98 % of control | [13] 93 % of control

CCCCCC[Si](Cl)(Cl)Cl
inactive: [17] 101 % of control | [18] 91 % of control

C/C(=C\n1ccccc1=N)C(=O)c1ccc(F)cc1
inactive: [15] 96 % of control | [16] 98 % of control | [19] 100 % of control

COc1ccc(C2(O)C3CCC(C3)C2(C)C)cc1 (configuration not stated)
inactive: [10] 89 % of control | [11] 89 % of control | [12] 89 % of control | [13] 95 % of control

CCN(CC)CCOC(=O)C(c1ccccc1)C1C=CCCC1 (configuration not stated)
inactive: [17] 102 % of control | [18] 92 % of control

COC(=O)Cc1c[nH]c(=O)[nH]c1=O
inactive: dose: 100.0 mg/kg/injection, schedule: Q01DX009 (ip), vehicle: water 102 % of control | dose: 100.0 mg/kg/injection, schedule: Q04DX003 (ip), vehicle: water 93 % of control | dose: 200.0 mg/kg/injection, schedule: Q01DX009 (ip), vehicle: water 98 % of control | dose: 200.0 mg/kg/injection, schedule: Q04DX003 (ip), vehicle: water 104 % of control | dose: 400.0 mg/kg/injection, schedule: Q04DX003 (ip), vehicle: water 95 % of control

O=NC1C(Cl)C2CC1C1CCCC21 (configuration not stated)
inactive: [15] 95 % of control | dose: 200.0 mg/kg/injection, schedule: Q01DX009 (ip), vehicle: Klucel (hydroxypropylcellulose) (HPC) 92 % of control | [16] 92 % of control | dose: 400.0 mg/kg/injection, schedule: Q01DX009 (ip), vehicle: Klucel (hydroxypropylcellulose) (HPC) 96 % of control | [19] 94 % of control

O=C1OCc2ccccc2C1O (configuration not stated)
inactive: [7] 111 % of control | [8] 94 % of control | [9] 94 % of control

S=P(c1cccc2ccccc12)(c1cccc2ccccc12)c1cccc2ccccc12
inactive: [7] 97 % of control | [8] 95 % of control | [9] 95 % of control

O=C(O)c1cc(Cc2c[nH]c(=O)[nH]c2=O)ccc1O
inactive: dose: 50.0 mg/kg/injection, schedule: Q01DX005 (ip), vehicle: water 109 % of control | dose: 100.0 mg/kg/injection, schedule: Q01DX005 (ip), vehicle: water 98 % of control | dose: 200.0 mg/kg/injection, schedule: Q01DX005 (ip), vehicle: water 102 % of control

O=C1c2ccccc2CCC1C1(O)C(=O)Nc2ccccc21 (configuration not stated)
inactive: [1] 104 % of control | [2] 101 % of control | [3] 93 % of control

OCC1=CC(O)C2C=COC(C3OC(CO)C(O)C(O)C3O)C12 (configuration not stated)
inactive: [4] 96 % of control | [5] 96 % of control | [6] 96 % of control | [20] 95 % of control | [14] 100 % of control | [21] 100 % of control

CCCCCCCC(C)NCCO (configuration not stated)
inactive: [22] 98 % of control

C=CCC(=O)OCC
inactive: dose: 222.0 mg/kg/injection, schedule: Q01DX Z (ip), vehicle: saline 94 % of control | dose: 333.0 mg/kg/injection, schedule: Q01DX Z (ip), vehicle: saline 108 % of control | dose: 500.0 mg/kg/injection, schedule: Q01DX Z (ip), vehicle: saline 94 % of control

CCC(OC(=O)Nc1ccc(S(=O)(=O)NC2CCCCC2)cc1)c1ccco1 (configuration not stated)
inactive: [7] 94 % of control | [8] 88 % of control | [9] 91 % of control

Nc1cccc(OCCCCOc2cccc(N)c2)c1
inactive: [1] 93 % of control | [2] 101 % of control | [3] 107 % of control

C/C(CCC(=O)O)=N/O
inactive: [5] 101 % of control | [6] 95 % of control | [20] 97 % of control | [14] 100 % of control | dose: 400.0 mg/kg/injection, schedule: Q01DX009 (ip), vehicle: saline 105 % of control | [21] 101 % of control

C=CCNC(=O)Nc1cccc(O)c1
inactive: dose: 100.0 mg/kg/injection, schedule: Q04DX003 (ip), vehicle: saline with Tween-80 100 % of control | dose: 200.0 mg/kg/injection, schedule: Q04DX003 (ip), vehicle: saline with Tween-80 96 % of control | dose: 400.0 mg/kg/injection, schedule: Q04DX003 (ip), vehicle: saline with Tween-80 93 % of control

NC1=NCCN1c1cccc2ccccc12
inactive: [22] 102 % of control | dose: 150.0 mg/kg/injection, schedule: Q01DX001 (ip), vehicle: carboxymethylcellulose (CMC) 98 % of control

C/C=C\c1ccc(OC(=O)c2ccc([N+](=O)[O-])cc2)c(OC)c1
inactive: dose: 100.0 mg/kg/injection, schedule: Q01DX001 (ip), vehicle: other 97 % of control | dose: 200.0 mg/kg/injection, schedule: Q01DX001 (ip), vehicle: other 106 % of control | dose: 400.0 mg/kg/injection, schedule: Q01DX001 (ip), vehicle: other 94 % of control

Clc1cc(Cl)c(SSc2cc(Cl)c(Cl)cc2Cl)cc1Cl
inactive: [1] 102 % of control | [2] 98 % of control | [3] 98 % of control

Cc1ccc2oc(=O)cc(C)c2c1
inactive: [11] 91 % of control | [12] 96 % of control | [13] 93 % of control

O=S(c1cc(Cl)cc(Cl)c1O)c1cc(Cl)cc(Cl)c1O
inactive: [10] 95 % of control | [11] 98 % of control | [12] 101 % of control | [13] 114 % of control

CCCCCCOC(=O)Nc1ccc(S(=O)(=O)N(CCC)CCC)cc1
inactive: [7] 97 % of control | [8] 95 % of control | [9] 97 % of control
